Measurements taken from article PMC11855827, “High-Throughput Screening of Five Compound Libraries for Anthelmintic Activity and Toxicity Leads to the Discovery of Two Flavonoid Compounds” (International Journal of Molecular Sciences, 2025).
Values joined by “and” are separate entries in the source; they are usually repeats but may differ in a detail not shown here. Equal entries are not always repeated. Where two headings read alike, the source gives them in different places.

Tested on: C. elegans
[1] = Table S2, C. elegans SS assay, 110 μM, 0 h, averages of 4 data points
[2] = Table S2, C. elegans SS assay, 110 μM, 24 h, averages of 4 data points

SMILES | Percentage of motility inhibition 0 h [1] [%] | Percentage of motility inhibition 24 h [2] | Percentage of motility inhibition 0 h (110 µM) | Percentage of motility inhibition 24 h (110 µM)
C=C(C)C(=O)O[C@H]1[C@@H]2[C@H](C)C(=O)O[C@@H]2C[C@@H](C)[C@@H]2C=CC(=O)[C@]21C [Arnicolide D] | 16 | 25% |  | 
C=C1CC[C@@]2(C)[C@H]([C@@H]1C)[C@H]1CC[C@@H]3[C@@]4(C)CC[C@H](O)C(C)(C)[C@@H]4CC[C@@]3(C)[C@]1(C)C[C@@H]2O [Arnidiol] | 12 | 57% |  | 
C=C(C(=O)O)[C@@H]1CC[C@@H](C)[C@@H]2CCC(C)=C[C@@H]21 [Artemisic acid] | 1 | 14% |  | 
C[C@@H]1CC[C@H]2[C@@H](C)C(=O)O[C@@H]3O[C@@]4(C)CC[C@@H]1[C@]32OO4 [Artemisinin] |  | 9% and 0% |  | 
COc1ccc(-c2oc3cc(OC)c(OC)c(O)c3c(=O)c2OC)cc1OC [Artemitin] | 0 | 20% |  | 
CCO[C@H]1O[C@@H]2O[C@@]3(C)CC[C@H]4[C@H](C)CC[C@@H]([C@H]1C)[C@@]24OO3 [Artemotil] |  | 0% and 2% |  | 
CC1(C)CC[C@]2(C(=O)O[C@@H]3O[C@H](CO[C@@H]4O[C@H](CO)[C@@H](O)[C@H](O)[C@H]4O)[C@@H](O)[C@H](O)[C@H]3O)CC[C@]3(C)C(=CC[C@@H]4[C@@]5(C)CC[C@H](O[C@@H]6OC[C@H](O)[C@H](O)[C@H]6O)[C@@](C)(CO)[C@@H]5CC[C@]43C)[C@@H]2C1 [Asperosaponin VI] | 0 | 2% |  | 
CC(C)(O)[C@@H]1CC[C@](C)([C@H]2[C@@H](O)C[C@@]3(C)[C@@H]4C[C@H](O)[C@H]5C(C)(C)[C@@H](O[C@@H]6OC[C@@H](O)[C@H](O)[C@H]6O[C@@H]6O[C@H](CO)[C@@H](O)[C@H](O)[C@H]6O)CC[C@@]56C[C@@]46CC[C@]23C)O1 [Astragaloside III] | 0 | 35% |  | 
CC(=O)O[C@H]1[C@H](O[C@H]2CC[C@]34C[C@]35CC[C@]3(C)[C@@H]([C@@]6(C)CC[C@@H](C(C)(C)O)O6)[C@@H](O)C[C@@]3(C)[C@@H]5C[C@H](O[C@@H]3O[C@H](CO)[C@@H](O)[C@H](O)[C@H]3O)[C@H]4C2(C)C)OC[C@@H](O)[C@@H]1O [Astragaloside II] | 5 | 45% |  | 
CC(C)(O)[C@@H]1CC[C@](C)([C@H]2[C@@H](O)C[C@@]3(C)[C@@H]4C[C@H](O[C@@H]5O[C@H](CO)[C@@H](O)[C@H](O)[C@H]5O)[C@H]5C(C)(C)[C@@H](O[C@@H]6OC[C@@H](O)[C@H](O)[C@H]6O)CC[C@@]56C[C@@]46CC[C@]23C)O1 [Astragaloside IV] | 10 | 0% |  | 
CC(C)(O)[C@@H]1CC[C@](C)([C@H]2[C@@H](O)C[C@@]3(C)[C@@H]4C[C@H](O[C@@H]5O[C@H](CO)[C@@H](O)[C@H](O)[C@H]5O)[C@H]5C(C)(C)[C@@H](O[C@@H]6OC[C@@H](O)[C@H](O)[C@H]6O[C@@H]6O[C@H](CO)[C@@H](O)[C@H](O)[C@H]6O)CC[C@@]56C[C@@]46CC[C@]23C)O1 [Astragaloside VI] | 3 | 0% |  | 
CC(C)(O)[C@@H]1CC[C@](C)([C@H]2[C@@H](O)C[C@@]3(C)[C@@H]4C[C@H](O)[C@H]5C(C)(C)[C@@H](O)CC[C@]5(C)C4=CC[C@]23C)O1 [Astragenol] | 50 | 50% |  | 
COC(=O)N[C@H](C(=O)N[C@@H](Cc1ccccc1)[C@@H](O)CN(Cc1ccc(-c2ccccn2)cc1)NC(=O)[C@@H](NC(=O)OC)C(C)(C)C)C(C)(C)C.O=S(=O)(O)O [Atazanavir (sulfate)] | 3 | 4% |  | 
C=C1[C@@H]2CCC3[C@@](CC[C@@H]4[C@H](C(=O)O)C[C@@H](O[C@@H]5O[C@H](CO)[C@@H](OS(=O)(=O)[O-])[C@H](OS(=O)(=O)[O-])[C@H]5OC(=O)CC(C)C)C[C@@]34C)(C2)[C@@H]1O.[K+].[K+] (stereo partly shown) [Atractyloside (potassium salt)] | 29 | 45% |  | 
CC(C)(O[C@@H]1O[C@H](CO)[C@@H](O)[C@H](O)[C@H]1O)[C@@H]1CC[C@](O)(CO)[C@H]2CC(=O)[C@@](C)(O)[C@@H]2C1 [Atractyloside A] | 13 | 28% |  | 
CN1[C@@H]2CC[C@H]1C[C@@H](OC(=O)C(CO)c1ccccc1)C2 (stereo partly shown) [Atropine] |  |  | 3% and 0% | 3% and 8%
O=C(N[C@@H](Cc1ccccc1)C(=O)N[C@H](CO)Cc1ccccc1)c1ccccc1 [Aurantiamide] | 0 | 15% |  | 
NC(=O)[C@@H]1CC[C@@H]2CN1C(=O)N2OS(=O)(=O)[O-].[Na+] [Avibactam (sodium hydrate)] | 37 | 3% |  | 
NC(=O)[C@@H]1CC[C@@H]2CN1C(=O)N2OS(=O)(=O)[O-].[Na+] [Avibactam (sodium)] | 0 | 8% |  | 
CC[C@H]1OC(=O)[C@H](C)[C@@H](O[C@H]2C[C@@](C)(OC)[C@@H](O)[C@H](C)O2)[C@H](C)[C@@H](O[C@@H]2O[C@H](C)C[C@H](N(C)C)[C@H]2O)[C@](C)(O)C[C@@H](C)CN[C@H](C)[C@@H](O)[C@]1(C)O [Azathramycin] | 11 | 10% |  | 
CC1(C)S[C@@H]2[C@H](NC(=O)[C@H](NC(=O)N3CCNC3=O)c3ccccc3)C(=O)N2[C@H]1C(=O)[O-].[Na+] [Azlocillin (sodium salt)] | 31 | 0% |  | 
Cc1nc(N(C)C(=O)Cc2ccc(-c3ccccn3)cc2)sc1S(N)(=O)=O [BAY 57‐1293] | 36 | 0% |  | 
COc1ccnc2[nH]cc(C(=O)C(=O)N3CCN(C(=O)c4ccccc4)C[C@H]3C)c12 [BMS‐378806] | 47 | 41% |  | 
CC(C)=C[C@@H]1CO[C@]23C[C@]4(CO2)[C@H](CC[C@@H]2[C@@]5(C)CC[C@H](O[C@@H]6OC[C@H](O)[C@H](O[C@@H]7O[C@H](CO)[C@@H](O)[C@H](O)[C@H]7O)[C@H]6O[C@@H]6O[C@@H](CO)[C@H](O)[C@H]6O)C(C)(C)[C@@H]5CC[C@]24C)[C@H]3[C@@]1(C)O [Bacopasaponin C] | 6 | 40% |  | 
